Values of other authors in patent US20220096371A1, “BIODEGRADABLE MICRONEEDLE SYSTEM WITH SUSTAINED RELEASE” (University of Connecticut, priority 2020, published 2022).

[1] = 81 mg ASA oral pill, by HPLC, used as target for MN system

## CC(=O)Oc1ccccc1C(=O)O [ASA, acetylsalicylic acid]
[1]
  ACU (area under the curve): ~865 ng/ml.hr
  average daily plasma concentration: ~100 ng/mL
Oral use
  bioavailability: ~20%
